What all share (test): inhibition of tumour cell growth, NCI panel, 48 h
Assay [1] relates to SK-MEL-2.
Assay [2] deals with KM-20L2.
Assay [3] relates to HL-60.
Assay [4] relates to CAKI-1.
The subject of assay [5] is M14.
The test system of assay [6] is HCT-15.
Assay [7] has as its system SN12C.
In assay [8] the test system is TK-10.
Assay [9] concerns NCI-H522.
The test system of assay [10] is SK-MEL-5.
Assay [11] concerns SF-539.
The subject of assay [12] is HCT-116.
The subject of assay [13] is OVCAR-3.
For assay [14], the system named is UO-31.
Assay [15] concerns HOP-62.
The test system of assay [16] is SW-620.
Assay [17] deals with BT-549.
The subject of assay [18] is HOP-92.
Assay [19] has as its system MDA-N.
Assay [20] deals with T47D.

Molecules are shown by their SMILES.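 48-hour exposure; five concentrations; linearly interpolated endpoints. Abbreviation: GI50, concentration required for 50% inhibition of growth.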 Calls of active or inactive are those of the source. Rule as the data show it: active = GI50 up to about 1.1 µM and inactive = higher.

This note sets out measurements from ChEMBL document CHEMBL1201862, “PubChem BioAssay data set” (2004).

As to `CC1(O)C=CC2CCC1C2O` (stereo not given), the GI50 in assay [1] was > 100 µM (inactive); in [2], 50.9 µM (inactive); in [3], > 100 µM (inactive); in assay [4] it was > 100 µM (inactive); in assay [5], > 100 µM (inactive); in assay [6] it was > 100 µM. Also, the GI50 in [7] was > 100 µM (inactive); in assay [8], > 100 µM (inactive); in [9], > 100 µM (inactive); in [10], > 100 µM (inactive); in [11] it was > 100 µM (inactive); in assay [12] it was 19.7 µM (inactive). Besides, the GI50 in [13], in assay [14] and in [15] was > 100 µM (inactive) throughout.

Take `O=C(c1ccccc1)c1ccc2cccc(OC3OC(CO)C(O)C(O)C3O)c2n1` (stereo not given): the GI50 was > 100 µM (inactive) in assay [1]; > 100 µM (inactive) in [2]; > 100 µM (inactive) in assay [4]; > 100 µM (inactive) in assay [5]; > 100 µM in assay [6]; > 100 µM (inactive) in assay [7]. In addition, the GI50 is > 100 µM (inactive) in [8]; > 100 µM (inactive) in assay [9]; > 100 µM (inactive) in assay [10]; > 100 µM (inactive) in [11]; > 100 µM (inactive) in assay [12]; 45.2 µM (inactive) in [13]. The GI50 in assay [14], in assay [16] and in assay [15] was > 100 µM (inactive) each time.

Take `Cc1ccc(C2C(Cl)C(=O)N2n2cnc3ccccc3c2=O)cc1` (stereo not given): the GI50 in [1] was > 100 µM (inactive); in assay [2], > 100 µM (inactive); in assay [3], 29.6 µM (inactive); in assay [4] it was > 100 µM (inactive); in [5], > 100 µM (inactive); in [6], > 100 µM. Besides, the GI50 in [7] was > 100 µM (inactive); in assay [8] it was > 100 µM (inactive); in assay [9], > 100 µM (inactive); in assay [10] it was 82.2 µM (inactive); in assay [12], 89.3 µM (inactive); in assay [13], 81.1 µM (inactive). For the same molecule, the GI50 is 23.4 µM (inactive) in assay [14], > 100 µM (inactive) in assay [16] and > 100 µM (inactive) in assay [15].

For `O=C1C(Cl)=C(Nc2ccc(S(=O)(=O)Nc3ccccn3)cc2)C(=O)c2ccccc21`, the GI50 in assay [17] is 14.4 µM (inactive); in [1] it was 5.7 µM (inactive); in assay [18], 5.7 µM (inactive); in assay [19], 6.46 µM (inactive); in assay [3] it was 3.3 µM (inactive); in [4] it was 16.8 µM (inactive). The GI50 was 5.93 µM (inactive) in assay [5]; 4.36 µM in [6]; 11.3 µM (inactive) in assay [7]; 6.08 µM (inactive) in assay [20]; 7.98 µM (inactive) in assay [8]; 5.02 µM (inactive) in assay [9]. Further, the GI50 is 4.4 µM (inactive) in [10]; 4.54 µM (inactive) in assay [11]; 6.24 µM (inactive) in [12]; 4.65 µM (inactive) in assay [13]; 9.84 µM (inactive) in assay [14]; 5.78 µM (inactive) in [16]. Moreover, in assay [15], the GI50 is 13 µM (inactive).

For the molecule `NC(=O)c1cnc2sc3ccccc3n2c1=O`, the GI50 in [17] was > 100 µM (inactive); in [1], > 100 µM (inactive); in [18], 91.4 µM (inactive); in assay [19] it was > 100 µM (inactive); in assay [3], > 100 µM (inactive); in assay [4], > 100 µM (inactive). Also, the GI50 is > 100 µM (inactive) in assay [5]; > 100 µM in assay [6]; > 100 µM (inactive) in [7]; > 100 µM (inactive) in assay [20]; > 100 µM (inactive) in [8]; 74 µM (inactive) in [9]. Further, the GI50 in assay [10] was > 100 µM (inactive); in assay [11], > 100 µM (inactive); in assay [12], > 100 µM (inactive); in assay [13], > 100 µM (inactive); in [14], 77.1 µM (inactive); in assay [16] it was > 100 µM (inactive). Moreover, the GI50 in [15] was > 100 µM (inactive).

For `C=C(C(=O)OC)N1C(=O)CC(C)C1=O` (stereo not given), the GI50 in assay [17] is 14.6 µM (inactive); in assay [1] it was 16.9 µM (inactive); in assay [18], 1.95 µM (inactive); in assay [19], 14.2 µM (inactive); in assay [3], 1.37 µM (inactive); in assay [4], 1.13 µM (inactive). Besides, the GI50 in assay [5] was 13.7 µM (inactive); in assay [6], 7.45 µM; in [7], 16.1 µM (inactive); in assay [20] it was 11.1 µM (inactive); in [8] it was 6.79 µM (inactive); in [9], 1.9 µM (inactive). Besides, the GI50 in [10] was 16.9 µM (inactive); in assay [11], 19 µM (inactive); in [12] it was 6.67 µM (inactive); in [13], 8.05 µM (inactive); in assay [14], 13.1 µM (inactive); in assay [16], 9.35 µM (inactive). Also, the GI50 in [15] is 17.5 µM (inactive).

Consider `CC1=C(C(=O)Nc2ccccc2)C(c2ccc(C)o2)C(C#N)=C(SCc2ccccc2)N1` (stereo not given), for which the GI50 was 43.4 µM (inactive) in assay [17]; > 100 µM (inactive) in assay [1]; 5.25 µM (inactive) in assay [18]; 5.38 µM (inactive) in assay [19]; 17.7 µM (inactive) in [3]; > 100 µM (inactive) in assay [4]. Further, the GI50 is > 100 µM (inactive) in [5]; 12.7 µM in assay [6]; > 100 µM (inactive) in assay [7]; 13.3 µM (inactive) in assay [20]; > 65.3 µM (inactive) in assay [8]; 9.55 µM (inactive) in [9]. In addition, the GI50 was 34.5 µM (inactive) in assay [10]; > 100 µM (inactive) in assay [11]; 33.3 µM (inactive) in [12]; 51.9 µM (inactive) in [13]; 99.3 µM (inactive) in [14]; > 58.6 µM (inactive) in assay [16]. In addition, the GI50 in assay [15] was > 100 µM (inactive).

Consider `CCOC(=O)C1=C(C)N(NC(=O)OC)C2(N)N(NC(=O)OC)C(C)=C(C(=O)OCC)C12C#N` (stereo not given), for which the GI50 was > 100 µM (inactive) in assay [1]; > 100 µM (inactive) in assay [2]; > 100 µM (inactive) in assay [3]; > 100 µM (inactive) in [4]; > 100 µM (inactive) in assay [5]; > 100 µM in assay [6]. The GI50 in [7], in assay [9], in assay [10], in assay [11], in assay [12] and in assay [13] was > 100 µM (inactive) each time. Besides, the GI50 in assay [14], in assay [16] and in assay [15] was > 100 µM (inactive) throughout.

Consider `CCCCCCCCCCCCCCCCOP(=O)(O)OCC(NC(C)=O)C(=O)O` (stereo not given), for which the GI50 in assay [17] was 18.8 µM (inactive); in [1] it was > 100 µM (inactive); in assay [18] it was 55.3 µM (inactive); in assay [19], 54.2 µM (inactive); in assay [3], 43.8 µM (inactive); in [4], 57 µM (inactive). Further, the GI50 is > 100 µM (inactive) in assay [5]; 18.2 µM in assay [6]; 42.6 µM (inactive) in assay [7]; > 100 µM (inactive) in [20]; 23.7 µM (inactive) in [8]; 5.64 µM (inactive) in [9]. The GI50 in assay [10] is > 100 µM (inactive); in [11] it was 32.4 µM (inactive); in assay [12], 36.4 µM (inactive); in assay [13] it was 98.2 µM (inactive); in assay [14], > 100 µM (inactive); in [16], > 100 µM (inactive). In addition, in assay [15], the GI50 was 19.2 µM (inactive).
